In this assay the target is T1, APOL1 (Homo sapiens, UniProt O14791).
T1 sequence (O14791 1-398 S342G/I384M): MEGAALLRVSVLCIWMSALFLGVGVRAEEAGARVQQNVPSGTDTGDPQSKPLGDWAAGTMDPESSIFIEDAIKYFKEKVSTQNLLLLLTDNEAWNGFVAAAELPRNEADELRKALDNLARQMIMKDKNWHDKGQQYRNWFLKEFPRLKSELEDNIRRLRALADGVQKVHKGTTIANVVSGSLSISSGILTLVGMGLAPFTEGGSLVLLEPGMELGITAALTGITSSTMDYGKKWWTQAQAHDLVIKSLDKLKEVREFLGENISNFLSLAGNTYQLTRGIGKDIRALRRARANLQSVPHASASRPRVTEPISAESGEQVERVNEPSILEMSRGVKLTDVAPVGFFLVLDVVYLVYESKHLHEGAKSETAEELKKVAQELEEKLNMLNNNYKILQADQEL
As to the kind of experiment: MultiTox-Fluor Multiplex Cytotoxicity Assay in tet-inducible APOL1 T-REx-HEK293 cells (cell rescue, ratio of dead to live cells). The settings on record: tet-inducible transgenic APOL1 T-REx-HEK293 cell lines, 50 ng/mL tet, 24 hours; read-out: IP50 (i.e., IC50 for cell proliferation). The class given is cell-based. In short, it runs like this: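 T-REx-HEK293 cells with tet-inducible APOL1 were treated with compound (10 μM top, 10-point 3-fold dilution, duplicate) plus 50 ng/mL tetracycline for 24 h at 37° C, in DMEM with 2% tet-free FBS. MultiTox-Fluor protease signals gave a dead/live ratio, normalized to no tet (100% viability) and tet alone (0%).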

As for `C[C@H]1C[C@@]2(CCN1CC(N)=O)OCCc1cc(CC(F)F)sc12` [Compound 622], the IC50 was 500 to 1000 nM.

For the compound `C[C@H]1C[C@@]2(CCN1CCN1CCCC1=O)OCCc1cc(CC(F)F)sc12` [Compound 623], the IC50 was in the range of 500 to 1000 nM. Next, `C[C@H]1C[C@@]2(CCN1CC(=O)N(C)C)OCCc1cc(CC(F)F)sc12` [Compound 624]: 500 to 1000 nM. Next, `C#CCN1CC[C@]2(C[C@@H]1C)OCCc1cc(Cl)sc12` [Compound 625, (2′S, 7R)-2-chloro-2′-methyl-1′-prop-2-ynyl-spiro[4,5-dihydrothieno[2,3-c]pyran-7,4′-piperidine]]: 500 to 1000 nM; `C[C@H]1C[C@@]2(CCN1Cc1cn(CCO)nn1)OCCc1cc(Cl)sc12` [Compound 627]: 100 to 500 nM; `C[C@H]1C[C@@]2(CCN1Cc1cn(CC(CO)CO)nn1)OCCc1cc(Cl)sc12` [Compound 628]: 100 to 500 nM. Regarding `C[C@H]1C[C@@]2(CCN1Cc1cn(CC(C)(CO)CO)nn1)OCCc1cc(Cl)sc12` [Compound 629], the IC50 is 100 to 500 nM. Then `C[C@H]1C[C@@]2(CCN1Cc1cnn(CCO)c1)OCCc1cc(Cl)sc12` [Compound 632], with less than 100 nM. Next, `C[C@H]1C[C@@]2(CCN1Cc1cnn(CC3(C)COC3)c1)OCCc1cc(Cl)sc12` [Compound 633]: less than 100 nM.

For the compound `C[C@H]1C[C@@]2(CCN1Cc1cnn(CC(C)(CO)CO)c1)OCCc1cc(Cl)sc12` [Compound 634], the IC50 is less than 100 nM. Then `CC(=O)Nc1ccc(CN2CC[C@]3(C[C@@H]2C)OCCc2cc(Cl)sc23)cc1` [Compound 635], with less than 100 nM. With `C[C@H]1C[C@@]2(CCN1Cc1ccc(N(CCO)CCO)cc1)OCCc1cc(Cl)sc12` [Compound 636], the IC50 was less than 100 nM. Then `Cc1cn2nc(CN3CC[C@]4(C[C@@H]3C)OCCc3cc(Cl)sc34)cc2c(NC2CC2)n1` [Compound 637], with less than 100 nM. Then `C[C@H]1C[C@@]2(CCN1Cc1ccc(NS(C)(=O)=O)cc1)OCCc1cc(Cl)sc12` [Compound 638], with less than 100 nM; and `C[C@H]1C[C@@]2(CCN1Cc1cccnc1)OCCc1cc(Cl)sc12` [Compound 639], with less than 100 nM; and `COCCc1ncc(CN2CC[C@]3(C[C@@H]2C)OCCc2cc(Cl)sc23)cn1` [Compound 640], with 100 to 500 nM.

On to `C[C@H]1C[C@@]2(CCN1Cc1cccc(NS(C)(=O)=O)c1)OCCc1cc(Cl)sc12` [Compound 641], for which the IC50 lay in the range of 100 to 500 nM. In the case of `C[C@H]1C[C@@]2(CCN1CCCn1cccn1)OCCc1cc(Cl)sc12` [Compound 642], the IC50 was 500 to 1000 nM. Next, `CC(O)CCN1CC[C@]2(C[C@@H]1C)OCCc1cc(Cl)sc12` (stereo partly drawn) [Compound 643]: 500 to 1000 nM; `C[C@H]1C[C@@]2(CCN1Cc1ccc(OCCO)cc1)OCCc1cc(Cl)sc12` [Compound 644]: less than 100 nM; `C[C@H]1C[C@@]2(CCN1Cc1ccncc1)OCCc1cc(Cl)sc12` [Compound 645]: 100 to 500 nM. Then `C[C@H]1C[C@@]2(CCN1Cc1cccc(OCCO)c1)OCCc1cc(Cl)sc12` [Compound 646], with less than 100 nM. Then `C[C@H]1C[C@@]2(CCN1Cc1ccc(N3CCCC3=O)cc1)OCCc1cc(Cl)sc12` [Compound 647], with less than 100 nM; and `C[C@H]1C[C@@]2(CCN1Cc1ccc(OCC(=O)N3CCOCC3)cc1)OCCc1cc(Cl)sc12` [Compound 648], with less than 100 nM.

Turning to `Cc1cncc(CN2CC[C@]3(C[C@@H]2C)OCCc2cc(Cl)sc23)c1` [Compound 649], the IC50 lay in the range of 100 to 500 nM. On to `C[C@H]1C[C@@]2(CCN1Cc1cn(-c3ncccn3)cn1)OCCc1cc(Cl)sc12` [Compound 650], for which the IC50 lay within 100 to 500 nM. Next, `COc1ncc(CN2CC[C@]3(C[C@@H]2C)OCCc2cc(Cl)sc23)cn1` [Compound 651]: less than 100 nM; `CNC(=O)c1cccc(CN2CC[C@]3(C[C@@H]2C)OCCc2cc(Cl)sc23)c1` [Compound 652]: 100 to 500 nM; `CCc1ncc(CN2CC[C@]3(C[C@@H]2C)OCCc2cc(Cl)sc23)cn1` [Compound 653]: 100 to 500 nM. Then `C[C@H]1C[C@@]2(CCN1Cc1ccc(S(C)(=O)=O)cc1)OCCc1cc(Cl)sc12` [Compound 654], with 100 to 500 nM; and `COc1cc(OCC(N)=O)ccc1CN1CC[C@@]2(C[C@H]1C)OCCc1cc(Cl)sc12` [Compound 655], with less than 100 nM. Next, `C[C@H]1C[C@@]2(CCN1Cc1cccc(OCC(N)=O)c1)OCCc1cc(Cl)sc12` [Compound 656]: 100 to 500 nM; `COc1ccc(CN2CC[C@]3(C[C@@H]2C)OCCc2cc(Cl)sc23)cc1OCC(N)=O` [Compound 657]: less than 100 nM. Take `C[C@H]1C[C@@]2(CCN1Cc1cnc(N3CCOCC3)nc1)OCCc1cc(Cl)sc12` [Compound 658]: the IC50 is less than 100 nM.

Regarding `C[C@H]1C[C@@]2(CCN1Cc1ccc(C(=O)N(C)C)cc1)OCCc1cc(Cl)sc12` [Compound 660], the IC50 is 100 to 500 nM. Then `COc1ccc(CN2CC[C@]3(C[C@@H]2C)OCCc2cc(Cl)sc23)cn1` [Compound 662], with less than 100 nM.

Take `COc1cc(CN2CC[C@]3(C[C@@H]2C)OCCc2cc(Cl)sc23)ccc1OCC(N)=O` [Compound 663]: the IC50 was less than 100 nM.

In the case of `C[C@H]1C[C@@]2(CCN1Cc1ccc3c(c1)n(C)c(=O)n3C)OCCc1cc(Cl)sc12` [Compound 664], the IC50 was less than 100 nM. `C[C@H]1C[C@@]2(CCN1Cc1ccc(F)cn1)OCCc1cc(Cl)sc12` [Compound 665]: the IC50 was in the range of 100 to 500 nM. With `C[C@H]1C[C@@]2(CCN1Cc1cnccn1)OCCc1cc(Cl)sc12` [Compound 666], the IC50 was in the range of 100 to 500 nM. Then `C[C@H]1C[C@@]2(CCN1Cc1ccc(C#N)nc1)OCCc1cc(Cl)sc12` [Compound 667], with 100 to 500 nM; and `C[C@H]1C[C@@]2(CCN1Cc1ccccn1)OCCc1cc(Cl)sc12` [Compound 668], with 500 to 1000 nM. Next, `C[C@H]1C[C@@]2(CCN1Cc1ccc(S(C)(=O)=O)c(F)c1)OCCc1cc(Cl)sc12` [Compound 669]: 100 to 500 nM; `C[C@H]1C[C@@]2(CCN1CC1CCN(S(C)(=O)=O)CC1)OCCc1cc(Cl)sc12` [Compound 670]: 100 to 500 nM. Next, `Cc1nccn1-c1ccc(CN2CC[C@]3(C[C@@H]2C)OCCc2cc(Cl)sc23)cc1` [Compound 671]: less than 100 nM. In the case of `C[C@H]1C[C@@]2(CCN1Cc1ccc(F)cc1)OCCc1cc(Cl)sc12` [Compound 672], the IC50 was in the range of 100 to 500 nM. Next, `C[C@H]1C[C@@]2(CCN1CCC1CCOCC1)OCCc1cc(Cl)sc12` [Compound 673]: 500 to 1000 nM; `Cc1ncccc1CN1CC[C@]2(C[C@@H]1C)OCCc1cc(Cl)sc12` [Compound 674]: 500 to 1000 nM. Next, `Cc1ccc(CN2CC[C@]3(C[C@@H]2C)OCCc2cc(Cl)sc23)c(C)n1` [Compound 675]: 100 to 500 nM; `C[C@H]1C[C@@]2(CCN1CC1(C)COC1)OCCc1cc(Cl)sc12` [Compound 676]: 100 to 500 nM. `Cc1cncc(N2CCC(CN3CC[C@]4(C[C@@H]3C)OCCc3cc(Cl)sc34)CC2)n1` [Compound 677]: the IC50 fell in the range of 500 to 1000 nM.

In the case of `C[C@H]1C[C@@]2(CCN1Cc1ccncc1F)OCCc1cc(Cl)sc12` [Compound 678], the IC50 fell in the range of 500 to 1000 nM.

Consider `C[C@H]1C[C@@]2(CCN1Cc1cn3c(n1)CCC3)OCCc1cc(Cl)sc12` [Compound 679], for which the IC50 is 500 to 1000 nM. Next, `Cc1cccc(CN2CC[C@]3(C[C@@H]2C)OCCc2cc(Cl)sc23)n1` [Compound 680]: 500 to 1000 nM; `C[C@H]1C[C@@]2(CCN1Cc1ccnn1C)OCCc1cc(Cl)sc12` [Compound 681]: 500 to 1000 nM; `C[C@H]1C[C@@]2(CCN1Cc1ccccc1F)OCCc1cc(Cl)sc12` [Compound 682]: 100 to 500 nM. Then `Cc1ncc(CN2CC[C@]3(C[C@@H]2C)OCCc2cc(Cl)sc23)n1C` [Compound 683], with 500 to 1000 nM; and `C[C@H]1C[C@@]2(CCN1Cc1ncccc1F)OCCc1cc(Cl)sc12` [Compound 684], with 500 to 1000 nM; and `C[C@H]1C[C@@]2(CCN1CC1CCOCC1)OCCc1cc(Cl)sc12` [Compound 685], with 500 to 1000 nM. Next, `C[C@H]1C[C@@]2(CCN1Cc1ncn3ccccc13)OCCc1cc(Cl)sc12` [Compound 686]: 500 to 1000 nM. With `C[C@H]1C[C@@]2(CCN1Cc1cccc(F)c1O)OCCc1cc(Cl)sc12` [Compound 687], the IC50 fell in the range of 500 to 1000 nM.

With `C[C@H]1C[C@@]2(CCN1Cc1cccc(F)c1)OCCc1cc(Cl)sc12` [Compound 688], the IC50 lay within 500 to 1000 nM.

As to `COc1cccc(CN2CC[C@]3(C[C@@H]2C)OCCc2cc(Cl)sc23)n1` [Compound 689], the IC50 fell in the range of 500 to 1000 nM. Next, `C[C@H]1C[C@@]2(CCN1Cc1cccc(Cl)c1O)OCCc1cc(Cl)sc12` [Compound 690]: 500 to 1000 nM.

In the case of `Cc1cnccc1CN1CC[C@]2(C[C@@H]1C)OCCc1cc(Cl)sc12` [Compound 693], the IC50 lay in the range of 500 to 1000 nM.

In the case of `C#CC(C)N1CC[C@]2(C[C@@H]1C)OCCc1cc(Cl)sc12` (stereo partly drawn) [Compound 694, (2′S, 7R)-2-chloro-2′-methyl-1′-(1-methylprop-2-ynyl)spiro[4,5-dihydrothieno[2,3-c]pyran-7,4′-piperidine]], the IC50 lay in the range of 500 to 1000 nM.

The record behind these values is patent US20250171459A1, “2-METHYL-4',5'-DIHYDROSPIRO[PIPERIDINE-4,7'-THIENO[2,3-C]PYRAN] DERIVATIVES AS INHIBITORS OF APOL1 AND METHODS OF USING SAME” (Vertex Pharmaceuticals Incorporated, priority 2022, published 2025).
